Measurements as given in the supplement of paper PMC10307832.

Experiments:
Assay in all cases: relative viability (nuclei count vs DMSO), 5 days (fraction); higher = more cells survive
Cediranib + Luminespib = compound: COc1cc2c(Oc3ccc4[nH]c(C)cc4c3F)ncnc2cc1OCCCN1CCCC1 [Cediranib] + CCNC(=O)c1noc(-c2cc(C(C)C)c(O)cc2O)c1-c1ccc(CN2CCOCC2)cc1 [Luminespib] (partner 0.01 µM)
Procedure, shortened: (§1)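 Cells from lung cancer lines were seeded into 1536-well plates and, one day later, dosed by pin tool. Treatments were either a single drug or a fixed dose of an anchor drug with five library-drug doses (not always all listed) in √10 steps. After 5 days, nuclei were stained in a one-step fixation (final 0.05% Triton X-100, 1% formaldehyde, 1 ug/ml Hoechst) and counted on 4× images, and relative viability is the treated-to-vehicle nuclei ratio, as the median of duplicate plates.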

Cediranib + AZD7762 = compound: COc1cc2c(Oc3ccc4[nH]c(C)cc4c3F)ncnc2cc1OCCCN1CCCC1 [Cediranib] + NC(=O)Nc1cc(-c2cccc(F)c2)sc1C(=O)N[C@H]1CCCNC1 [AZD7762] (partner 0.2 µM)
Procedure, shortened: as §1

Decitabine + Palbociclib = compound: Nc1ncn([C@H]2C[C@H](O)[C@@H](CO)O2)c(=O)n1 [Decitabine] + CC(=O)c1c(C)c2cnc(Nc3ccc(N4CCNCC4)cn3)nc2n(C2CCCC2)c1=O [Palbociclib] (partner 0.5 µM)
Procedure, shortened: as §1

Decitabine + Foretinib = compound: Nc1ncn([C@H]2C[C@H](O)[C@@H](CO)O2)c(=O)n1 [Decitabine] + COc1cc2c(Oc3ccc(NC(=O)C4(C(=O)Nc5ccc(F)cc5)CC4)cc3F)ccnc2cc1OCCCN1CCOCC1 [Foretinib] (partner 0.25 µM)
Procedure, shortened: as §1

## LK-2
Cediranib + Luminespib; first compound 0.04 µM
  relative viability: 0.217
Cediranib + Luminespib; first compound 0.1265 µM
  relative viability: 0.16
Cediranib + Luminespib; first compound 0.4 µM
  relative viability: 0.196
Cediranib + Luminespib; first compound 1.265 µM
  relative viability: 0.159
Cediranib + Luminespib; first compound 4 µM
  relative viability: 0.188
Cediranib + AZD7762; first compound 0.04 µM
  relative viability: 0.463
Cediranib + AZD7762; first compound 0.1265 µM
  relative viability: 0.275
Cediranib + AZD7762; first compound 0.4 µM
  relative viability: 0.327
Cediranib + AZD7762; first compound 1.265 µM
  relative viability: 0.284
Cediranib + AZD7762; first compound 4 µM
  relative viability: 0.319
Decitabine + Palbociclib; first compound 0.04 µM
  relative viability: 0.655
Decitabine + Palbociclib; first compound 0.1265 µM
  relative viability: 0.66
Decitabine + Palbociclib; first compound 0.4 µM
  relative viability: 0.327
Decitabine + Palbociclib; first compound 1.265 µM
  relative viability: 0.236
Decitabine + Palbociclib; first compound 4 µM
  relative viability: 0.238
Decitabine + Foretinib; first compound 0.04 µM
  relative viability: 1.45
Decitabine + Foretinib; first compound 0.1265 µM
  relative viability: 1.38
Decitabine + Foretinib; first compound 0.4 µM
  relative viability: 0.849
Decitabine + Foretinib; first compound 1.265 µM
  relative viability: 0.39
Decitabine + Foretinib; first compound 4 µM
  relative viability: 0.381

## NCI-H23
Cediranib + Luminespib; first compound 0.04 µM
  relative viability: 0.192
Cediranib + Luminespib; first compound 0.1265 µM
  relative viability: 0.218
Cediranib + Luminespib; first compound 0.4 µM
  relative viability: 0.213
Cediranib + Luminespib; first compound 1.265 µM
  relative viability: 0.253
Cediranib + Luminespib; first compound 4 µM
  relative viability: 0.238
Cediranib + AZD7762; first compound 0.04 µM
  relative viability: 0.222
Cediranib + AZD7762; first compound 0.1265 µM
  relative viability: 0.383
Cediranib + AZD7762; first compound 0.4 µM
  relative viability: 0.246
Cediranib + AZD7762; first compound 1.265 µM
  relative viability: 0.331
Cediranib + AZD7762; first compound 4 µM
  relative viability: 0.286
Decitabine + Palbociclib; first compound 0.04 µM
  relative viability: 0.413
Decitabine + Palbociclib; first compound 0.1265 µM
  relative viability: 0.372
Decitabine + Palbociclib; first compound 0.4 µM
  relative viability: 0.295
Decitabine + Palbociclib; first compound 1.265 µM
  relative viability: 0.28
Decitabine + Palbociclib; first compound 4 µM
  relative viability: 0.271
Decitabine + Foretinib; first compound 0.04 µM
  relative viability: 0.692
Decitabine + Foretinib; first compound 0.1265 µM
  relative viability: 0.533
Decitabine + Foretinib; first compound 0.4 µM
  relative viability: 0.393
Decitabine + Foretinib; first compound 1.265 µM
  relative viability: 0.39
Decitabine + Foretinib; first compound 4 µM
  relative viability: 0.359

## NCI-H1355
Cediranib + Luminespib; first compound 0.04 µM
  relative viability: 0.739
Cediranib + Luminespib; first compound 0.1265 µM
  relative viability: 0.871
Cediranib + Luminespib; first compound 0.4 µM
  relative viability: 0.686
Cediranib + Luminespib; first compound 1.265 µM
  relative viability: 0.813
Cediranib + Luminespib; first compound 4 µM
  relative viability: 0.719
Cediranib + AZD7762; first compound 0.04 µM
  relative viability: 0.806
Cediranib + AZD7762; first compound 0.1265 µM
  relative viability: 1.08
Cediranib + AZD7762; first compound 0.4 µM
  relative viability: 0.717
Cediranib + AZD7762; first compound 1.265 µM
  relative viability: 0.668
Cediranib + AZD7762; first compound 4 µM
  relative viability: 0.714
Decitabine + Palbociclib; first compound 0.04 µM
  relative viability: 0.374
Decitabine + Palbociclib; first compound 0.1265 µM
  relative viability: 0.345
Decitabine + Palbociclib; first compound 0.4 µM
  relative viability: 0.329
Decitabine + Palbociclib; first compound 1.265 µM
  relative viability: 0.275
Decitabine + Palbociclib; first compound 4 µM
  relative viability: 0.277
Decitabine + Foretinib; first compound 0.04 µM
  relative viability: 0.568
Decitabine + Foretinib; first compound 0.1265 µM
  relative viability: 0.596
Decitabine + Foretinib; first compound 0.4 µM
  relative viability: 0.436
Decitabine + Foretinib; first compound 1.265 µM
  relative viability: 0.374
Decitabine + Foretinib; first compound 4 µM
  relative viability: 0.305

## A-427
Cediranib + Luminespib; first compound 0.04 µM
  relative viability: 1.25
Cediranib + Luminespib; first compound 0.4 µM
  relative viability: 0.84
Cediranib + Luminespib; first compound 1.265 µM
  relative viability: 0.906
Cediranib + Luminespib; first compound 4 µM
  relative viability: 0.928
Cediranib + AZD7762; first compound 0.04 µM
  relative viability: 0.816
Cediranib + AZD7762; first compound 0.4 µM
  relative viability: 0.685
Cediranib + AZD7762; first compound 1.265 µM
  relative viability: 0.659
Cediranib + AZD7762; first compound 4 µM
  relative viability: 0.707
Decitabine + Palbociclib; first compound 0.04 µM
  relative viability: 0.451
Decitabine + Palbociclib; first compound 0.1265 µM
  relative viability: 0.466
Decitabine + Palbociclib; first compound 0.4 µM
  relative viability: 0.378
Decitabine + Palbociclib; first compound 1.265 µM
  relative viability: 0.431
Decitabine + Palbociclib; first compound 4 µM
  relative viability: 0.381
Decitabine + Foretinib; first compound 0.04 µM
  relative viability: 0.653
Decitabine + Foretinib; first compound 0.1265 µM
  relative viability: 0.635
Decitabine + Foretinib; first compound 0.4 µM
  relative viability: 0.354
Decitabine + Foretinib; first compound 1.265 µM
  relative viability: 0.264
Decitabine + Foretinib; first compound 4 µM
  relative viability: 0.242

## NCI-H1793
Cediranib + Luminespib; first compound 0.04 µM
  relative viability: 0.182
Cediranib + Luminespib; first compound 0.1265 µM
  relative viability: 0.176
Cediranib + Luminespib; first compound 0.4 µM
  relative viability: 0.224
Cediranib + Luminespib; first compound 4 µM
  relative viability: 0.201
Cediranib + AZD7762; first compound 0.04 µM
  relative viability: 0.521
Cediranib + AZD7762; first compound 0.1265 µM
  relative viability: 0.492
Cediranib + AZD7762; first compound 0.4 µM
  relative viability: 0.418
Cediranib + AZD7762; first compound 1.265 µM
  relative viability: 0.329
Cediranib + AZD7762; first compound 4 µM
  relative viability: 0.394
Decitabine + Palbociclib; first compound 0.04 µM
  relative viability: 0.339
Decitabine + Palbociclib; first compound 0.1265 µM
  relative viability: 0.329
Decitabine + Palbociclib; first compound 0.4 µM
  relative viability: 0.381
Decitabine + Palbociclib; first compound 1.265 µM
  relative viability: 0.301
Decitabine + Palbociclib; first compound 4 µM
  relative viability: 0.31
Decitabine + Foretinib; first compound 0.04 µM
  relative viability: 0.631
Decitabine + Foretinib; first compound 0.1265 µM
  relative viability: 0.641
Decitabine + Foretinib; first compound 0.4 µM
  relative viability: 0.533
Decitabine + Foretinib; first compound 1.265 µM
  relative viability: 0.351
Decitabine + Foretinib; first compound 4 µM
  relative viability: 0.406

## LU99A
Cediranib + Luminespib; first compound 0.04 µM
  relative viability: 0.301
Cediranib + Luminespib; first compound 0.1265 µM
  relative viability: 0.255
Cediranib + Luminespib; first compound 0.4 µM
  relative viability: 0.252
Cediranib + Luminespib; first compound 1.265 µM
  relative viability: 0.269
Cediranib + Luminespib; first compound 4 µM
  relative viability: 0.256
Cediranib + AZD7762; first compound 0.04 µM
  relative viability: 0.457
Cediranib + AZD7762; first compound 0.4 µM
  relative viability: 0.338
Cediranib + AZD7762; first compound 1.265 µM
  relative viability: 0.287
Cediranib + AZD7762; first compound 4 µM
  relative viability: 0.41
Decitabine + Palbociclib; first compound 0.04 µM
  relative viability: 0.39
Decitabine + Palbociclib; first compound 0.1265 µM
  relative viability: 0.434
Decitabine + Palbociclib; first compound 0.4 µM
  relative viability: 0.445
Decitabine + Palbociclib; first compound 1.265 µM
  relative viability: 0.321
Decitabine + Palbociclib; first compound 4 µM
  relative viability: 0.291
Decitabine + Foretinib; first compound 0.04 µM
  relative viability: 0.766
Decitabine + Foretinib; first compound 0.1265 µM
  relative viability: 0.814
Decitabine + Foretinib; first compound 0.4 µM
  relative viability: 0.874
Decitabine + Foretinib; first compound 1.265 µM
  relative viability: 0.625
Decitabine + Foretinib; first compound 4 µM
  relative viability: 0.486
